{"source": "paper PMC9870890", "about": "(Nature Communications, 2023)", "target": "T1, M2RFL△9M_K383M (Homo sapiens, UniProt P08172, K383M/M139L/M142L/M143L/M1T/M248L/M296L/M368L/M456T/M45L)", "T1 construct": "we used the full-length M2R (M2RFL) with mutations at the three native methionines in ICL3; FLAG; His; made in house; host or cells: Sf9 membranes", "T1 sequence (P08172 1-466 M1T/M45L/M139L/M142L/M143L/M248L/M296L/M368L/K383M/M456T)": "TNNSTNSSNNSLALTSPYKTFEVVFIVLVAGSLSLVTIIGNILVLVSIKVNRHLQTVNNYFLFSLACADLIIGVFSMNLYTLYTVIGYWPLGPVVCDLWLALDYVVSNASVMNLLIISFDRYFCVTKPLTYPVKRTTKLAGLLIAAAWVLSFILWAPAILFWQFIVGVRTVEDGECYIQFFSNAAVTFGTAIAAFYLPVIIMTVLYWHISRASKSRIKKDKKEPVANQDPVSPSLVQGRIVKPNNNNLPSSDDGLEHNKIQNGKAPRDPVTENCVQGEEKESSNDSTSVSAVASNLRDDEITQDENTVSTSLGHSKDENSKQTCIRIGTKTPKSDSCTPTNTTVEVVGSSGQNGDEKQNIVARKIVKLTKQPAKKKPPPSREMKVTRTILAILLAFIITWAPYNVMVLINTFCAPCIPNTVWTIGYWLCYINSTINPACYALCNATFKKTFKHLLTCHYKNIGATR", "experiment": "[3H]-NMS competition binding (ACh competition, GoA titration), engineered construct", "design": "unit not given here", "method": "Purified M2R receptor was reconstituted into high-density lipoprotein (HDL) particles constituting apolipoprotein A1(APOA1) and mixture of POPG: POPC lipids with 3:2 (mol:mol)ratio as previously described. […] Membranes or HDL particles were separated from excess [^3H]-NMS by Whatman GF/B filters using a Brandel 48-well harvester. The bound radioligand were read on a liquid scintillation counter (MicroBeta Jet, PerkinElmer). Data were analyzed by GraphPad Prism 9.2.0. […]\nData are given as mean\n± SEM from 3 independent experiments.\nM2RFL△9M_K383M and M2RFL_WT.\nSEM from 3 independent experiments. […]", "note": "Several values for one entry are separate records, joined by “and”; a condition that tells them apart may be missing. Equal values may be shown once."}
{"compound": "CC(=O)OCC[N+](C)(C)C", "note": "[ACh, acetylcholine]", "values": [{"measurement": "ACh competition curve data, Supplementary Fig. 4c", "setting": "log[M] (ACh) -3", "result": "3.636 and 3.347 and 4.163"}, {"measurement": "ACh competition curve data, Supplementary Fig. 4c", "setting": "log[M] (ACh) -4", "result": "19.7375 and 21.0617 and 22.4385"}, {"measurement": "ACh competition curve data, Supplementary Fig. 4c", "setting": "log[M] (ACh) -5", "result": "66.4796 and 63.8048 and 73.8724"}, {"measurement": "ACh competition curve data, Supplementary Fig. 4c", "setting": "log[M] (ACh) -6", "result": "76.3279 and 99.6814 and 101.207"}, {"measurement": "ACh competition curve data, Supplementary Fig. 4c", "setting": "log[M] (ACh) -7", "result": "102.154 and 99.3043 and 98.5413"}, {"measurement": "ACh competition curve data, Supplementary Fig. 4c", "setting": "log[M] (ACh) -8", "result": "82.4578 and 100.655 and 103.084"}]}
